# Where “and” joins values, the source holds several entries; their conditions need not be identical. Equal entries are not always repeated. Entries after “also recorded” stand apart in the source; their conditions may differ.
# T1: E. faecalis TyrDC (Enterococcus faecalis, UniProt P0DTQ4)
# T1 sequence (P0DTQ4 1-620): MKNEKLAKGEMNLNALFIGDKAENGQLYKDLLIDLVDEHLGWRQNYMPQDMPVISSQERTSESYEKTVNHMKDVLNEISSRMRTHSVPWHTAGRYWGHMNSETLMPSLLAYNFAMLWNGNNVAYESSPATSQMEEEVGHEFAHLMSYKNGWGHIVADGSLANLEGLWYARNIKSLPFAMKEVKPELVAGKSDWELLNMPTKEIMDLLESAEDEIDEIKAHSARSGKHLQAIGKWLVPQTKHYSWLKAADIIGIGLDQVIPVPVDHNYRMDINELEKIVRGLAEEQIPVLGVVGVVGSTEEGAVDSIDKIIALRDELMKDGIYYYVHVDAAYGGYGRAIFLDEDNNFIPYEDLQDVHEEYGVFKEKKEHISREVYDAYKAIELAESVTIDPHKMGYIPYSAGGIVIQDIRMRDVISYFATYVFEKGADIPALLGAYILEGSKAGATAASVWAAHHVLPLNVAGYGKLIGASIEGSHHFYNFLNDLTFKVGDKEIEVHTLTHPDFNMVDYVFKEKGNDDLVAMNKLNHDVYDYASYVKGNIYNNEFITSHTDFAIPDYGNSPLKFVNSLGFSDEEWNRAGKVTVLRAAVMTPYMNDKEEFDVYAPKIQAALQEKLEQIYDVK
# T2: TyrDC (Enterococcus faecalis, UniProt P0DTQ4)
# T2 sequence (P0DTQ4 1-620): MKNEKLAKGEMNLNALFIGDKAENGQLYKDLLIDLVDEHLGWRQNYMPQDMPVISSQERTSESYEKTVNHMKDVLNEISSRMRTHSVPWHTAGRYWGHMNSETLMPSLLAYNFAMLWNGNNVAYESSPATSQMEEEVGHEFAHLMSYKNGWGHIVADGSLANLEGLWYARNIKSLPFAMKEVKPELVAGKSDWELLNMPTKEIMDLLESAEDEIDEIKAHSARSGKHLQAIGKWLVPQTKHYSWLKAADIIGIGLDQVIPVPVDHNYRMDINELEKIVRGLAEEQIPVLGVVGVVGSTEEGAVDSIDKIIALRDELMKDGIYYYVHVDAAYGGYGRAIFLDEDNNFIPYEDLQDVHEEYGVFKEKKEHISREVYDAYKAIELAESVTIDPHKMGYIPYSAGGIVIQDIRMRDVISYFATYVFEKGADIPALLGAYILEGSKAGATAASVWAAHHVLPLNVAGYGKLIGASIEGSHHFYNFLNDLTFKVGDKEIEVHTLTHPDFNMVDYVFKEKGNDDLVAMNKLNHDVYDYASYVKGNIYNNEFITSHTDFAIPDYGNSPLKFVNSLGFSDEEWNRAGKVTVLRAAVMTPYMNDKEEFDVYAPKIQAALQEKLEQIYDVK
# T3: H. sapiens AADC (Homo sapiens, UniProt P20711)
# T3 sequence (P20711 1-480): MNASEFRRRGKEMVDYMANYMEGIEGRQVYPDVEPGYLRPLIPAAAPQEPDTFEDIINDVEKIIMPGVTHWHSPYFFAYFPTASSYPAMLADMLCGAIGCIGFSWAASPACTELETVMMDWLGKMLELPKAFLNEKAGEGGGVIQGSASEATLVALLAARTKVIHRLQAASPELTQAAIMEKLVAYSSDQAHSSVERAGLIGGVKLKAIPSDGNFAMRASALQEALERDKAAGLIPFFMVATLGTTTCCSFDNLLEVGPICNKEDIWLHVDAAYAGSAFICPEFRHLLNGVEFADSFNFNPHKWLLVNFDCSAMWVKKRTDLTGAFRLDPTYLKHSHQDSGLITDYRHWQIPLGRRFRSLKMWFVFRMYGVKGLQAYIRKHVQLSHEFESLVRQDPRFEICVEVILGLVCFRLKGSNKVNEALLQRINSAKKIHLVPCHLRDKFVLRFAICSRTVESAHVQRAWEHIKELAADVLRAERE
# B1: E. faecalis TyrDC (Enterococcus faecalis EnGen0310 = MMH594) (protein)
# chain: MKNEKLAKGEMNLNALFIGDKAENGQLYKDLLIDLVDEHLGWRQNYMPQDMPVISSQERTSESYEKTVNHMKDVLNEISSRMRTHSVPWHTAGRYWGHMNSETLMPSLLAYNFAMLWNGNNVAYESSPATSQMEEEVGHEFAHLMSYKNGWGHIVADGSLANLEGLWYARNIKSLPFAMKEVKPELVAGKSDWELLNMPTKEIMDLLESAEDEIDEIKAHSARSGKHLQAIGKWLVPQTKHYSWLKAADIIGIGLDQVIPVPVDHNYRMDINELEKIVRGLAEEQIPVLGVVGVVGSTEEGAVDSIDKIIALRDELMKDGIYYYVHVDAAYGGYGRAIFLDEDNNFIPYEDLQDVHEEYGVFKEKKEHISREVYDAYKAIELAESVTIDPHKMGYIPYSAGGIVIQDIRMRDVISYFATYVFEKGADIPALLGAYILEGSKAGATAASVWAAHHVLPLNVAGYGKLIGASIEGSHHFYNFLNDLTFKVGDKEIEVHTLTHPDFNMVDYVFKEKGNDDLVAMNKLNHDVYDYASYVKGNIYNNEFITSHTDFAIPDYGNSPLKFVNSLGFSDEEWNRAGKVTVLRAAVMTPYMNDKEEFDVYAPKIQAALQEKLEQIYDVK
# Assays:
# [1] = Solubility limit noted in the inhibition assays; format: physicochemical
# [2] = tested on: E. faecalis MMH594 cells; assay: L-dopa decarboxylation in anaerobic E. faecalis cultures with inhibitor
# [3] = tested on: HeLa cells; assay: MTS/MTT assay for HeLa cell viability in the presence of AFMT; format: cell-based; conditions: two days treatment
# Experimental: HeLa cells were seeded in 100 μL growth medium [(DMEM medium supplemented with 10% FBS (2 mL) and 1× Antibiotic-Antimycotic (100× stock, Invitrogen))] and incubated at 37° C. in 5% CO2 incubator for 1 day. Wells containing growth medium only were used as background controls. Cells were treated with various concentrations of AFMT in quadruplicate. Two days post treatment, 20 μL of CellTiter 96® AQueous One Solution Reagent (Promega) was added to each well. The plates were incubated at 37° C. in 5% CO2 incubator for 2 hours followed by absorbance measurement at 490 nm. To calculate relative cell viability, the readings for each compound concentration were subtracted from the background controls and normalized to vehicle controls.
# HeLa cells were seeded into 96-well plates at a density of 1×10^5 cells per well in 100 μL of growth medium [(DMEM medium supplemented with 10% FBS (2 mL) and 1× Antibiotic-Antimycotic (100× stock, Invitrogen))] and incubated at 37° C. in a 5% CO2 incubator for 1 day. Wells containing growth medium only were used as background controls. Cells were treated with various concentrations of AFMT in quadruplicate. […] To calculate relative cell viability, the readings for each compound concentration were subtracted from the background controls and normalized to vehicle controls
# [4] = biological target: T1, E. faecalis TyrDC; assay: Inhibition of L-dopa decarboxylation by purified TyrDC (LC-MS/MS); conditions: for preferential inhibition, AADC vs TyrDC: FIG. 4 panels B and E, in vitro; for IC50: IC50, L-dopa decarboxylation by TyrDC, purified E. faecalis TyrDC, 500 μM L-dopa, pH 5.5, best-fit ± standard error, n=3
# [5] = Pharmacokinetic experiment in gnotobiotic mice colonized with E. faecalis MMH594; format: in vivo; conditions: L-dopa+carbidopa+AFMT
# [6] = tested on: human fecal microbiota
# Experimental: Fecal slurries from neurologically healthy human donors or Parkinson's patients were prepared as described in the ‘enrichment culturing’ section above. These slurries were diluted to a final volume of 300 μL in 20% glycerol and then aliquoted into individual tubes, flash-frozen in liquid nitrogen and stored at −80° C., allowing for experiments to be repeated with the same fecal sample multiple times without freeze-thawing.
# [7] = tested on: co-cultures of E. faecalis and E. lenta; assay: L-dopa metabolism by co-cultures of E. faecalis and E. lenta with AFMT; conditions: 125 μM AFMT, 1 mM d3-phenyl-L-dopa, 48 hours
# Experimental: E. faecalis MMH594 WT or tyrDC mutant or E. lenta A2 or E. lenta DSM2243 were grown anaerobically for 48 hours from single colonies in BHI medium at 37° C. These starter cultures were normalized to an OD600=0.1 by dilution into fresh BHI medium. […] Cultures were grown for 48 hours at 37° C. and harvested by centrifugation.
# [8] = biological target: T2, TyrDC; assay: Identification of a PLP-inhibitor adduct upon incubation of enzymes with AFMT; format: biochemical; conditions: TyrDC or AADC incubated with AFMT for 1 hour
# Experimental: The same buffers as described above were used for each enzyme. 10 μM AADC or TyrDC was incubated with 200 μM PLP and 50 μM AFMT for one hour at room temperature. The reactions were quenched by boiling at 95° C. for 15 minutes. This mix was diluted 1:20 in LC-MS grade methanol and spun down to pellet precipitates. The supernatant was analyzed by LC-MS using Method E described above. The predicted adduct was identified based on the work described in.
# [9] = biological target: T3, H. sapiens AADC; assay: Inhibition of L-dopa decarboxylation by purified AADC (LC-MS/MS)
# [10] = biological target: T1, E. faecalis TyrDC; assay: Michaelis-Menten kinetics of E. faecalis TyrDC; conditions: for Vmax / kcat: substrate of TyrDC, best-fit ± standard error, n=3
# Experimental: (§1) The enzyme reaction was then initiated by dissolving the preincubated enzyme-PLP mix 1:10 with substrate dissolved in 0.2 M sodium acetate buffer, pH 5.5. […] Aliquots of the enzyme reaction were quenched by diluting 10-fold into ice cold methanol at 20, 40, and 60 seconds after initiation. The quenched reaction was centrifuged to pellet precipitates and 5 μL of the supernatant was analyzed by LC-MS/MS using Method B described above. Rates were calculated as the substrate produced from 20 to 60 seconds and were fit to a standard Michaelis-Menten kinetics curve in Graphpad prism (version 7). All experiments were done in triplicate and were repeated at least twice. Reactions were performed at room temperature.
# [11] = cited from earlier work
# [12] = tested on: E. lenta A2; assay: Effect of tungstate on dopamine dehydroxylation in cultures of E. lenta A2; format: cell-based, Eggerthella lenta; conditions: 48 hours, 0.5 mM dopamine
# [13] = tested on: E. lenta A2 cell lysates; assay: E. lenta A2 lysate assays with tungstate; format: biochemical, Eggerthella lenta; conditions: 500 μM dopamine, 12 hours, room temperature
# Experimental: E. lenta A2 was grown either without or with 500 μM dopamine in BHI medium containing 1% (w/v) arginine and 10 mM formate. Cultures were spun down at OD600=0.500 and cell pellets were washed twice with anaerobic, sterile PBS to remove dopamine and any m-tyramine that had accumulated in the culture. Pellets were lysed anaerobically in 50 mM Tris pH 8 followed by addition of 500 μM dopamine (DA) to lysates. Lysates were left at room temperature for 12 hours and were analyzed for m-tyramine production by LC-MS/MS. Peak heights show the relative intensity of each mass and all chromatograms are shown on the same scale.
# 10 mL turbid 48-hour starter cultures of E. lenta A2 in BHI medium were diluted 1:100 into 20 mL BHI medium containing 1% arginine and 10 mM formate with or without 500 μM dopamine. Cells were pelleted by centrifugation when cultures reached OD600=0.500. Cell pellets were washed twice with PBS and were then re-suspended in 800 μL 50 mM Tris pH 8 containing 4 mg/mL […] protease inhibitor cocktail, followed by anaerobic sonication to lyse the cells. Dopamine was added to crude lysates at a final concentration of 500 μM and the reactions were left for 12 hours at room temperature under anaerobic conditions. […] Supernatant were analyzed by LC-MS/MS to measure dopamine and m-tyramine production using Method A described above. […]
# [14] = tested on: E. lenta A2; assay: Anaerobic growth of E. lenta A2 in the presence of tungstate; format: cell-based, Eggerthella lenta; conditions: BHI medium, varying concentrations of tungstate
# [15] = substrate: N[C@@H](Cc1ccc(O)cc1)C(=O)O; assay: purified protein, by the assay type; conditions: other: substrate of TyrDC; best-fit ± standard error, n=3; pH 5.5
# Experimental: as §1
# [16] = substrate: N[C@@H](Cc1ccc(O)c(O)c1)C(=O)O; assay: purified protein, by the assay type; conditions: other: substrate of TyrDC, pH 5.5
# [17] = read-out: inhibition of AADC at solubility limit
molecule,measurement,setting,value
N[C@@](CF)(Cc1ccc(O)cc1)C(=O)O [AFMT],solubility,"[1]; AADC inhibition assay mixture, AADC inhibition assay",650 µM
same,fold outperforming carbidopa in E. faecalis cultures,[2]; AFMT vs carbidopa,1000 fold
same,EC50,"[2]; Enterococcus faecalis, MMH594CELLS, read-out: EC50, L-dopa decarboxylation in E. faecalis cultures, E. faecalis MMH594 cells, 0.5 mM L-dopa, anaerobic",1.4 µM
same,toxicity to eukaryotic cells,[3],non-toxic
same,"preferential inhibition, AADC vs TyrDC",[4],preferentially inhibits TyrDC over AADC
same,IC50,[4],4.7 µM and 4.71 µM
same,serum L-dopa relative to vehicle controls,[5],higher
same,L-dopa decarboxylation in gut microbiota samples,"[6]; Parkinson's disease patients and neurologically healthy control subjects, 1 mM d3-phenyl-L-dopa, 72 hours",completely inhibited
same,L-dopa decarboxylation by co-cultures of E. faecalis and E. lenta,[7],reduced
same,covalent PLP adduct formation,[8],formed a covalent PLP adduct only in the presence of TyrDC
same,inhibition at 650 µM,[9]; [17],~20%
same,inhibition at 700 µM,[9]; [17],20%
N[C@@H](Cc1ccc(O)c(O)c1)C(=O)O [L-dopa],Vmax,[10],5.553 ± 0.165 ^ μM/s
same,kcat,[10],55.53 ± 2.98 ^ 1/s
same,L-dopa reaching the brain,[11]; extensive pre-systemic metabolism in the gut,1-5%
"N[C@@H](Cc1ccc(O)cc1)C(=O)O [Tyrosine, L-tyrosine]",fold higher catalytic efficiency compared to L-dopa,[10]; TyrDC,5 fold
same,Vmax,[10],6.363 ± 0.102 µM/s
same,kcat,[10],63.63 ± 1.02 s⁻¹
C[C@@](Cc1ccc(O)c(O)c1)(NN)C(=O)O [carbidopa],solubility,"[1]; E. faecalis cultures, plasma or biological fluid",2000 µM
same,inhibition at 2000 µM,"[2]; Enterococcus faecalis, MMH594CELLS, read-out: inhibition of L-dopa decarboxylation by E. faecalis cultures, at solubility limit of 2 mM",~50%
same,inhibition of L-dopa decarboxylation by E. faecalis cultures,[2]; at solubility limit of 2 mM,50% inhibition at
same,m-tyramine production in patients,"[11]; carbidopa administration, previous findings",does not impact
same,fold less active toward TyrDC relative to AADC,[4]; E. faecalis TyrDC vs H. sapiens AADC,200 fold
same,"preferential inhibition, AADC vs TyrDC",[4],preferentially inhibits human amino acid decarboxylase (AADC) over TyrDC
same,IC50,[4],52 µM
same,kinetics of L-dopa degradation in stool samples,"[6]; 2 mM carbidopa, 1 mM d3-phenyl-L-dopa, 72 hours",did not alter
same,endpoint m-tyramine production in stool samples,"[6]; 2 mM carbidopa, Parkinson's patients and neurologically healthy controls",did not alter
same,IC50,[9],0.21 µM
"[Na+].[Na+].[O]=[W](=[O])([O-])[O-] [tungstate, Sodium tungstate]",dopamine dehydroxylation by E. lenta A2 cultures,[12],inhibits
same,dopamine dehydroxylation by E. lenta A2 cell lysates,[13],had no effect; also recorded: no dose-dependent effect
same,growth of E. lenta A2,[14],without affecting growth; also recorded: no obvious dose-dependent growth defect
B1,Km,[15],314.9 ± 15.5 µM
same,Km,"[16]; best-fit ± standard error, n=3",1475 ± 79.28 ^ μM
same,Km,[16],1.5 mM

# Reference: patent US20220226269A1, “METHODS AND COMPOSITIONS FOR MODULATION OF AN INTERSPECIES GUT BACTERIAL PATHWAY FOR LEVODOPA METABOLISM” (President and Fellows of Harvard College, priority 2019, published 2022)
